Test: Henry solubility constant Hcp at 298.15 K (mol/(m3 Pa))
Conditions: reference: Diaz et al. (2005)

COc1c(Cl)ccc(Cl)c1Cl [1,2,4-trichloro-3-methoxybenzene]
Henry solubility constant Hcp: 0.011

COc1c(Br)ccc(Br)c1Br [1,3,4-tribromo-2-methoxybenzene]
Henry solubility constant Hcp: 0.0052

COc1c(Br)cc(Br)cc1Br [1,3,5-tribromo-2-methoxybenzene]
Henry solubility constant Hcp: 0.019

COc1c(Cl)cc(Cl)cc1Cl [1,3,5-trichloro-2-methoxybenzene]
Henry solubility constant Hcp: 0.0044

COc1c(Br)ccc(Cl)c1Br [2,6-dibromo-3-chloro-1-methoxybenzene]
Henry solubility constant Hcp: 0.0074

COc1c(Br)cc(Cl)cc1Br [2,6-dibromo-4-chloro-1-methoxybenzene]
Henry solubility constant Hcp: 0.02

COc1c(Cl)cc(Cl)cc1Br [2-bromo-4,6-dichloro-1-methoxybenzene]
Henry solubility constant Hcp: 0.0082

COc1c(Cl)ccc(Br)c1Cl [3-bromo-2,6-dichloro-1-methoxybenzene]
Henry solubility constant Hcp: 0.011

COc1c(Cl)cc(Br)cc1Cl [4-bromo-2,6-dichloro-1-methoxybenzene]
Henry solubility constant Hcp: 0.012

COc1c(Cl)ccc(Cl)c1Br [6-bromo-2,5-dichloro-1-methoxybenzene]
Henry solubility constant Hcp: 0.0077

— Sander's compilation of Henry's law constants (doi:10.1016/j.chroma.2004.12.027)
